Broadly, the melting point is the temperature, or range, at which the solid turns liquid.

`CN(C)C1(c2ccccc2)CCC(C(=O)c2cc3ccccc3n2C)(N2CCCC2)CC1` (stereo not drawn) yielded a melting point of 212 to 218 °C.

`CCNC(=O)Cc1cc(Oc2ccc(C(F)(F)F)cc2Cl)ccc1[N+](=O)[O-]` returned a melting point of 189 °C.

Consider `Cn1cncc1Cn1nnnc1-c1cccc(Cl)c1Cl`, for which the melting point fell in the range of 166 to 168 °C.

In turn, `CC(C)(CNc1ccc(C(=O)CCC(=O)O)cc1)[N+](=O)[O-]` had a melting point of 198 to 200 °C.

`CC(Oc1cccc2c1C(=O)N(C1CCC(=O)NC1=O)C2=O)c1ccc2ccccc2c1` (stereo not drawn) showed a melting point of 174 to 176 °C.

In turn, `O=C(CNc1ccccc1F)Nc1ccc(O)cc1` came in with a melting point of 143 to 146 °C.

Molecule `Cc1cc(C)c2nc(N(CC(C)N3CCOCC3)C3CCNCC3)n(Cc3nc(C)ccc3O)c2c1` (stereo not drawn) yielded a melting point of 223 °C.

`Cc1cc(F)c(N)cc1-n1cc(C(=O)O)c(=O)c2cc(F)c(N3CC(O)C3)c(C)c21` displayed a melting point of 147 to 151 °C.

Take `CC(C)N(C)C(=O)N1N=C2c3cc(F)ccc3OC[C@@H]2[C@@H]1c1ccccc1` (racemic): the melting point fell in the range of 102 to 105 °C.

As to `CC(NC(=O)c1ccc([N+](=O)[O-])cc1)C(=O)O` (stereo not drawn), the melting point lay within 199 to 200 °C.

Regarding `CCn1cc(C(=O)O)c(=O)c2cc(F)c(N3CCN(S(=O)(=O)c4ccc(OC)cc4)CC3)c(F)c21`, the melting point lay within 252 to 253 °C.

Molecule `C=C(C)C(=O)OCc1c(Br)c(Br)c(COC(=O)C(=C)C)c(Br)c1Br` yielded a melting point of 148 to 149 °C.

On to `CC1(C)COc2ccc(C[C@@H](NC(=O)c3cccc4c3C=CCCC4)[C@@H](O)c3cccc(Cl)c3)cc21` (racemic), for which the melting point lay in the range of 149 to 150 °C.

Regarding `CN1C(=O)C2CCCCC2N=C1c1ccccc1` (stereo not drawn), the melting point fell in the range of 79 to 82 °C.

`O=C(CCl)c1ccc2c(c1)Nc1ccccc1S2` displayed a melting point of 190 to 191 °C.

The molecule `COc1c(Cl)ccc(-c2cc(N)c(Cl)c(C(=O)NOCc3nnsc3Cl)n2)c1F` came in with a melting point of 179 to 181 °C.

Turning to `O=CN1CCN(Cc2nc3ccccc3[nH]2)CC1`, the melting point fell in the range of 194 to 198 °C.

`O=[N+]([O-])c1ccc(C#Cc2ccccc2)c(-c2cc([N+](=O)[O-])ccc2C#Cc2ccccc2)c1` came in with a melting point of 216 to 218 °C.

As to `O=C(O)Cc1c(Cl)nc(-c2ccccc2)n1Cc1ccccc1`, the melting point is 161 to 163 °C.

With `CS(=O)(=O)N[C@H]1CC[C@H](CCN2CCN(c3nccc4c3CCO4)CC2)CC1`, the melting point was determined as 220 °C.

`CCOc1ccn2c(C)c(CCc3ccc4nc(N)oc4c3)nc2c1` came in with a melting point of 207 to 208 °C.

On to `CNC(=O)c1ccccc1Nc1nc(Nc2ccc3c(c2)CCN(CC(C)(C)F)CC3)ncc1Cl`, for which the melting point was in the range of 207 to 210 °C.

In the case of `Cc1ccc(C)n1NC(=O)COc1ccc(C2=NNC(=O)NC2C)cc1Cl` (stereo not drawn), the melting point was 189 to 190 °C.

`Nc1nc2n(n1)Cc1ccccc1-2` had a melting point of 193 to 194 °C.

Turning to `Cn1cc(-c2ccccc2)c(=O)c(-c2ccc(C(F)(F)F)cc2)c1`, the melting point lay within 164 to 166 °C.

Turning to `Cc1cccc2[nH]nnc12`, the melting point lay within 145 to 146 °C.

Take `CCC(C)c1ccc(-n2c(-c3cc(C)c(OCCO)c(C)c3)nc3ccc(S(C)(=O)=O)cc3c2=O)cc1` (stereo not drawn): the melting point is 259 to 260 °C.

For the molecule `CC(C)(C)C(=O)C1CCCS1(=O)=O` (stereo not drawn), the melting point is 53 to 56 °C.

With `CC(C)(C)C(=O)SC[C@H](NC(=O)C(C)(C)S)C(=O)O`, the melting point lay in the range of 115 to 117 °C.

For the molecule `CCOCc1nc2c(N)nc3cc(OCc4ccccc4)ccc3c2n1CCCCN1CCCS1(=O)=O`, the melting point is 225 to 227 °C.

On to `O=C1C=C(N2CCCCC2)c2oc3ccccc3c2C1=O`, for which the melting point fell in the range of 151 to 156 °C.

In turn, `N#Cc1cccc(/C=C/C2=CCN(Cc3c[nH]c4ncccc34)CC2)c1` came in with a melting point of 213 to 215 °C.

In turn, `CC(CCCC(C)C1C(O)CC2C3CC=C4CC(O)CCC4(C)C3CCC21C)CN1C(=O)c2ccccc2C1=O` (stereo not drawn) gave a melting point of 134 to 136 °C.

Molecule `O=C1c2ccccc2C(=O)N1CCCCCCCCCCOc1ccc(-n2ccnc2)cc1` returned a melting point of 90 to 91 °C.

For `Cn1cncc1C(O)(c1ccc(Cl)cc1)c1ccc2c(c1)c(-c1cccs1)cc(=O)n2C` (stereo not drawn), the melting point was more than 260 °C.

As for `O=[N+]([O-])c1c(NCCO)cc(Cl)cc1NCCO`, the melting point turned out to be 154 °C.

Turning to `COc1cc2c(cc1OC)C(C)N(C(=O)Cc1cccc([N+](=O)[O-])c1)CC2` (stereo not drawn), the melting point was in the range of 120 to 121 °C.

`CCCCOc1c(CNC(=O)OC(C)(C)C)n(CC(C)C)c(=O)c2ccc(C(=O)OC)cc12` had a melting point of 148 to 149 °C.

`CCC(COC)NC(=O)C(Cc1ccc(OCc2ccccc2)cc1)NC(=O)C(CC(C)C)N(C)Cc1ccc(C(C)(C)C)cc1` (stereo not drawn): the melting point fell in the range of 118 to 120 °C.

`COc1ccc2c(c1)-c1c(cc(C)n1C[C@@H](C)O)C2` yielded a melting point of 110 °C.

`N#CCC1NC(=O)C(Cc2ccccc2)NC1=O` (stereo not drawn) came in with a melting point of 255 to 256 °C.

As to `CCCCCC(C#Cc1ccc(C(=O)O)cc1)c1ccc2c(c1)C(C)(C)CCC2(C)C` (racemic), the melting point is 115 to 116 °C.

`N#Cc1ccc(CCCN2C(=O)c3ccccc3C2=O)cc1` gave a melting point of 138 to 140 °C.

For the molecule `CC1CCCN(CC(C)N2c3ccccc3Sc3ccc(C(N)=S)cc32)C1` (mixture of isomers), the melting point stood at 236 °C.

`Oc1cc(OCc2ccccc2)cc(OCc2ccccc2)c1`: the melting point lay within 107 to 109 °C.

Molecule `CCC(=O)N1C(=O)C(=O)c2cc(F)ccc21` registered a melting point of 150 to 152 °C.

`COC(=O)Cc1oc2ccc(Cl)cc2c1-c1ccccc1C` yielded a melting point of 135 to 136 °C.

As for `O=C(NCCBr)Oc1ccccc1`, the melting point fell in the range of 57 to 60 °C.

Molecule `COc1ccc2cc(-c3cnc(Cc4ccc5ccccc5c4)o3)ccc2c1` displayed a melting point of 159 to 162 °C.

Molecule `C=CCONC(=O)Cc1ccc(OC)cc1` returned a melting point of 100 to 101 °C.

In turn, `CCCC(=O)Nc1n[nH]c2cc(Cl)ccc12` registered a melting point of 230 °C.

Turning to `COc1ccc(-c2ccc(C(C)O)cc2)cc1` (single isomer, unassigned; (+)), the melting point was 132 to 133 °C.

In turn, `COC(C(C)C)C(C)(C)C(=O)Nc1ccc(Cl)cc1` (stereo not drawn) displayed a melting point of 103 to 107 °C.

Molecule `Nc1nc(-n2cc(C(=O)O)c(=O)c3cc(F)c(F)c(Cl)c32)c(F)cc1Cl` gave a melting point of 280 °C.

Molecule `COc1cc(C(C)=O)cc(OC)c1OCCCN1CCC(c2noc3cc(F)ccc23)CC1` displayed a melting point of 107 to 108 °C.

Take `Cc1ccccc1-c1c(Cl)nc2ccccc2c1Cl`: the melting point fell in the range of 78 to 80 °C.

`CCCCCCCC(=N)NC(=S)Nc1ccc(Cl)cc1` returned a melting point of 98 to 99 °C.

The molecule `COc1cc(CNC(=O)c2oc(=O)c3ncccc3c2-c2ccc(C)cc2)cc(OC)c1` had a melting point of 154 to 155 °C.

Regarding `O=C(c1ccc(F)cc1)C1CCN(CCN(C(=O)c2ccc([N+](=O)[O-])cc2)c2cccc(C(F)(F)F)c2)CC1`, the melting point lay in the range of 123 to 137 °C.

In the case of `CCCCCCCNc1ccncc1`, the melting point lay within 50 to 52 °C.

Take `O=c1c2ccccc2ncn1CCN1CCC(c2c[nH]c3ccccc23)CC1`: the melting point was 90 °C.

In turn, `CSc1ccc(COC(=O)OCc2ccc([N+](=O)[O-])cc2)cc1` yielded a melting point of 84 to 86 °C.

For `N#Cc1c(C(F)(F)F)nn(-c2c(Cl)cc(S(=O)(=O)C(F)(F)F)cc2Cl)c1[N+](=O)[O-]`, the melting point is 168 to 169 °C.

The molecule `O=S(=O)(Nc1ccc(Cl)cc1Sc1ccc(Cl)cc1)C(F)(F)F` returned a melting point of 83 to 84 °C.

Consider `CSc1nn2c(N)cc(C)nc2c1S(=O)(=O)c1ccc(Br)cc1`, for which the melting point is more than 230 °C.

`CCN(CC)C(=O)CP(=S)(c1ccccc1)c1ccccc1` gave a melting point of 108 to 110 °C.

Take `Cc1c(N)ccc2c1C(=O)NS2(=O)=O`: the melting point is 272 to 273 °C.

The molecule `CCCOC(=O)c1cncn1C(C)c1ccccc1` (stereo not drawn) yielded a melting point of 156 to 157 °C.

Take `COc1cccc(Oc2c(NS(=O)(=O)c3ccc(C(C)(C)C)cc3)ncnc2SCCO)c1`: the melting point was 150 °C.

As to `CC(C)(Cc1ccccc1)C(NC(=O)c1ccc(Cl)cc1)NC(=N[N+](=O)[O-])Nc1cccnc1` (stereo not drawn), the melting point lay in the range of 205 to 207 °C.

The molecule `Cc1ccc(-c2nc(=O)c3ccccc3s2)n1C` yielded a melting point of 194 to 196 °C.

In turn, `Nc1nc(N)c2c(n1)NCC(CCc1ccc(C(=O)N[C@@H](CCC(=O)O)C(=O)O)cc1)C2` (stereo partly drawn) yielded a melting point of more than 250 °C.

As to `CCCCOc1ccc(C(=O)Nc2ccc3cc(CN4CCCC4)cnc3c2C)c(F)c1`, the melting point was 138 °C.

As to `COC(=O)C1=C(C)NC(C)=C(NC(=O)Nc2ccccc2)C1c1ccccc1Cl` (stereo not drawn), the melting point was 203 to 205 °C.

The molecule `CS(=O)(=O)c1ccc(C(=O)Nc2ccc(Cl)c(-c3ccc(C(=O)NO)cn3)c2)c(Cl)c1` had a melting point of 190 to 193 °C.

The molecule `C=CCONC(=O)c1c([Si](C)(C)C)ccc(Cl)c1Cl` showed a melting point of 92 to 94 °C.

Regarding `NC(=O)Nc1cccc(OCCCCl)c1`, the melting point was in the range of 141 to 143 °C.

In turn, `O=C1C(Cl)=C(Cl)C(=O)N1c1ccc(Oc2ccccc2)cc1` came in with a melting point of 180 to 181 °C.

The molecule `Cc1ccc(-c2nc(CCC(O[Si](C)(C)C(C)(C)C)c3ccc(C=O)s3)c(C)o2)cc1` (stereo not drawn) came in with a melting point of 122 to 124 °C.

Molecule `FC(F)c1nc2ccccc2n1-c1nc(-c2cncnc2)cc(N2CCOCC2)n1` came in with a melting point of 209 to 211 °C.

For the molecule `CSCc1cn(C)c2c(F)cccc2c1=O`, the melting point lay within 165 to 167 °C.

The molecule `CCOC(=O)N1CC=C(c2cc(F)c(C#N)cc2F)CC1` registered a melting point of 85 to 87 °C.

Take `CCCCCCCc1ncc(CO)[nH]1`: the melting point lay within 82 to 84 °C.

`CC1C(=O)NCCN1C(=O)C(Cl)Cl` (stereo not drawn) showed a melting point of 167 to 168 °C.

For the molecule `CN1CCN(C(=O)[C@H](CC(N)=O)NC(=O)OC(C)(C)C)CC1`, the melting point is 68 to 70 °C.

`C=CCON(C)C(=O)c1nc(-c2ccc(Cl)c(OC)c2F)cc(N)c1Cl` displayed a melting point of 134 to 136 °C.

For `O=C1c2ccccc2C(=O)c2sc(-c3ccccc3)nc21`, the melting point is 249 °C.

Turning to `C#CCc1c(C)nc(N)[nH]c1=O`, the melting point is 245 to 249 °C.

(Values after a melting point compilation (Tetko et al.; mined from patent text by program, amines drawn as free bases though some values may be those of a salt).)
